# Assay results reported in patent US12498382B2, “Biomarkers for vitiligo” (INCYTE CORPORATION, priority 2019, dated 2025).
# Tested on: HaCaT cells
# Assay: Concentrations of inflammatory mediators produced by HaCaT cells stimulated with TNFα and IFNγ in presence/absence of JAK inhibitors (ProCarta)
# Assay type: cell-based, human
# Settings: TNFα 25 ng/mL + IFNγ 25 ng/mL
# Protocol: After 48 hours, cell culture media was removed from 24 well plates and replaced with 250 uL of media containing serial diluted drug, then incubated for 15 minutes at 37° C./5% CO2. […] The final concentration of Recombinant Human Interferon gamma and Recombinant Human Tumor Necrosis Factor alpha was 25 ng/mL of each cytokine. Cytokine stimulation added to wells containing drug brought the final concentrations for each drug treatment to 25 nM, 50 nM, 100 nM, and 200 nM. Treated plates were mixed by gentle agitation for 30 seconds then incubated for 24 hours at 37° C./5% CO2. At the end of the 24 hour incubation media was immediately removed from each plate.
# Media was incubated with antibody conjugated beads designed to bind to the epitopes of specific target proteins and identify the bound protein through the bead's distinctive spectral pattern. Biotinylated detection antibodies, designed to bind to different epitopes of the same target proteins, and Streptavidin-PE are added to assay plates to quantify the amount of the target proteins. Assay plates were read on the Luminex 200 and data were expressed as Net Median Fluorescence Intensity. […] The concentration of each protein was extrapolated from the antigen standard curve and concentrations were expressed as pg/mL (Table 15).
smiles,measurement,setting,value
N#CCC1(n2cc(-c3ncnc4[nH]ccc34)cn2)CN(C2CCN(C(=O)c3ccnc(C(F)(F)F)c3F)CC2)C1 [Cpc B],BDNF concentration,drug 25 nM,4.05 ± 0.19 pg/mL
same,EGF concentration,drug 25 nM,1.76 ± 0.17 pg/mL
same,Eotaxin concentration,drug 25 nM,10.22 ± 0.15 pg/mL
same,FGF-2 concentration,drug 25 nM,20.63 ± 1.49 pg/mL
same,GM-CSF concentration,drug 25 nM,130.13 ± 2.13 pg/mL
same,GRO alpha concentration,drug 25 nM,547.38 ± 31.41 pg/mL
same,HGF concentration,drug 25 nM,14.15 ± 0.3 pg/mL
same,IFN alpha concentration,drug 25 nM,0.24 ± 0.02 pg/mL
same,IFN gamma concentration,drug 25 nM,35023.68 ± 10759.49 pg/mL
same,IL1RA concentration,drug 25 nM,5944.59 ± 264.97 pg/mL
same,IL1 alpha concentration,drug 25 nM,7.34 ± 0.31 pg/mL
same,IL1 beta concentration,drug 25 nM,9.53 ± 0.3 pg/mL
same,IL2 concentration,drug 25 nM,33.62 ± 1.88 pg/mL
same,IL4 concentration,drug 25 nM,6.74 ± 1.65 pg/mL
same,IL5 concentration,drug 25 nM,27.31 ± 1.32 pg/mL
same,IL6 concentration,drug 25 nM,749.64 ± 32.94 pg/mL
same,IL7 concentration,drug 25 nM,2.14 ± 0.12 pg/mL
same,IL8 concentration,drug 25 nM,2837.03 ± 135.03 pg/mL
same,IL9 concentration,drug 25 nM,4.55 ± 0.85 pg/mL
same,IL10 concentration,drug 25 nM,0.87 ± 0.06 pg/mL
same,IL12p70 concentration,drug 25 nM,2.01 ± 0.21 pg/mL
same,IL13 concentration,drug 25 nM,2.79 ± 0.33 pg/mL
same,IL15 concentration,drug 25 nM,3.3 ± 0.93 pg/mL
same,IL17A concentration,drug 25 nM,4.6 ± 0.5 pg/mL
same,IL18 concentration,drug 25 nM,162.16 ± 4.98 pg/mL
same,IL21 concentration,drug 25 nM,2.66 ± 0.22 pg/mL
same,IL22 concentration,drug 25 nM,8.69 ± 0.42 pg/mL
same,IL23 concentration,drug 25 nM,7.28 ± 0.16 pg/mL
same,IL27 concentration,drug 25 nM,8.03 ± 1.71 pg/mL
same,IL31 concentration,drug 25 nM,3.6 ± 0.28 pg/mL
same,IP-10/CXCL10 concentration,drug 25 nM,4068.98 ± 507.12 pg/mL
same,LIF concentration,drug 25 nM,68.82 ± 2.51 pg/mL
same,MCP1 concentration,drug 25 nM,29762.04 ± 13226.23 pg/mL
same,MIP1 alpha concentration,drug 25 nM,103.81 ± 3.29 pg/mL
same,MIP1 beta concentration,drug 25 nM,319.77 ± 6.92 pg/mL
same,PDGF-BB concentration,drug 25 nM,5.19 ± 0.15 pg/mL
same,PIGF-1 concentration,drug 25 nM,56.69 ± 2.37 pg/mL
same,RANTES concentration,drug 25 nM,203.77 ± 12.55 pg/mL
same,SCF concentration,drug 25 nM,4.33 ± 0.18 pg/mL
same,SDF-1 alpha concentration,drug 25 nM,3430.87 ± 111.52 pg/mL
same,TNF alpha concentration,drug 25 nM,10574.99 ± 753.02 pg/mL
same,TNF beta concentration,drug 25 nM,4.91 ± 0.79 pg/mL
same,VEGF-A concentration,drug 25 nM,1249.75 ± 44.89 pg/mL
same,VEGF-D concentration,drug 25 nM,9.22 ± 0.87 pg/mL
same,bNGF concentration,drug 25 nM,7.7 ± 0.55 pg/mL
same,BDNF concentration,drug 50 nM,4.04 ± 0.24 pg/mL
same,EGF concentration,drug 50 nM,1.67 ± 0.15 pg/mL
same,Eotaxin concentration,drug 50 nM,9.92 ± 0.2 pg/mL
same,FGF-2 concentration,drug 50 nM,19.94 ± 1.49 pg/mL
same,GM-CSF concentration,drug 50 nM,128.05 ± 2.9 pg/mL
same,GRO alpha concentration,drug 50 nM,544.63 ± 38.3 pg/mL
same,HGF concentration,drug 50 nM,13.65 ± 0.53 pg/mL
same,IFN alpha concentration,drug 50 nM,0.26 ± 0 pg/mL
same,IFN gamma concentration,drug 50 nM,28977.92 ± 7400.61 pg/mL
same,IL1RA concentration,drug 50 nM,5840.44 ± 314.35 pg/mL
same,IL1 alpha concentration,drug 50 nM,7.06 ± 0.37 pg/mL
same,IL1 beta concentration,drug 50 nM,8.96 ± 0.43 pg/mL
same,IL2 concentration,drug 50 nM,31.96 ± 1.47 pg/mL
same,IL4 concentration,drug 50 nM,5.74 ± 1.1 pg/mL
same,IL5 concentration,drug 50 nM,25.5 ± 1.65 pg/mL
same,IL6 concentration,drug 50 nM,674.21 ± 27.15 pg/mL
same,IL7 concentration,drug 50 nM,1.9 ± 0.12 pg/mL
same,IL8 concentration,drug 50 nM,2862.21 ± 240.57 pg/mL
same,IL9 concentration,drug 50 nM,4.13 ± 0.43 pg/mL
same,IL10 concentration,drug 50 nM,0.85 ± 0.05 pg/mL
same,IL12p70 concentration,drug 50 nM,1.68 ± 0.21 pg/mL
same,IL13 concentration,drug 50 nM,2.73 ± 0.23 pg/mL
same,IL15 concentration,drug 50 nM,2.71 ± 0.65 pg/mL
same,IL17A concentration,drug 50 nM,4.09 ± 0.43 pg/mL
same,IL18 concentration,drug 50 nM,153.4 ± 3.46 pg/mL
same,IL21 concentration,drug 50 nM,2.45 ± 0.29 pg/mL
same,IL22 concentration,drug 50 nM,8.9 ± 0^ pg/mL
same,IL23 concentration,drug 50 nM,7.43 ± 0 pg/mL
same,IL27 concentration,drug 50 nM,6.95 ± 0.83 pg/mL
same,IL31 concentration,drug 50 nM,3.22 ± 0.38 pg/mL
same,IP-10/CXCL10 concentration,drug 50 nM,3872.74 ± 295.01 pg/mL
same,LIF concentration,drug 50 nM,67.89 ± 3.08 pg/mL
same,MCP1 concentration,drug 50 nM,27471.13 ± 12271.13 pg/mL
same,MIP1 alpha concentration,drug 50 nM,100.64 ± 4.66 pg/mL
same,MIP1 beta concentration,drug 50 nM,318.84 ± 8.17 pg/mL
same,PDGF-BB concentration,drug 50 nM,5.28 ± 0.18 pg/mL
same,PIGF-1 concentration,drug 50 nM,53.92 ± 2.81 pg/mL
same,RANTES concentration,drug 50 nM,198.35 ± 15.1 pg/mL
same,SCF concentration,drug 50 nM,4.16 ± 0.18 pg/mL
same,SDF-1 alpha concentration,drug 50 nM,3356.32 ± 136.22 pg/mL
same,TNF alpha concentration,drug 50 nM,11776.9 ± 1658.47 pg/mL
same,TNF beta concentration,drug 50 nM,4.13 ± 0.5 pg/mL
same,VEGF-A concentration,drug 50 nM,1242.76 ± 50.39 pg/mL
same,VEGF-D concentration,drug 50 nM,9.72 ± 0.75 pg/mL
same,bNGF concentration,drug 50 nM,7.09 ± 0.71 pg/mL
same,BDNF concentration,drug 100 nM,4.06 ± 0.26 pg/mL
same,EGF concentration,drug 100 nM,1.56 ± 0.2 pg/mL
same,Eotaxin concentration,drug 100 nM,10.09 ± 0.19 pg/mL
same,FGF-2 concentration,drug 100 nM,20.42 ± 1.5 pg/mL
same,GM-CSF concentration,drug 100 nM,133.06 ± 4.24 pg/mL
same,GRO alpha concentration,drug 100 nM,568.49 ± 35.18 pg/mL
same,HGF concentration,drug 100 nM,14.41 ± 0.55 pg/mL
same,IFN alpha concentration,drug 100 nM,0.26 ± 0 pg/mL
same,IFN gamma concentration,drug 100 nM,29276.66 ± 7697.74 pg/mL
same,IL1RA concentration,drug 100 nM,5953.24 ± 309.78 pg/mL
same,IL1 alpha concentration,drug 100 nM,7 ± 0.41 pg/mL
same,IL1 beta concentration,drug 100 nM,8.66 ± 0.41 pg/mL
same,IL2 concentration,drug 100 nM,31.33 ± 1.43 pg/mL
same,IL4 concentration,drug 100 nM,5.78 ± 0.72 pg/mL
same,IL5 concentration,drug 100 nM,26.52 ± 1.54 pg/mL
same,IL6 concentration,drug 100 nM,643.8 ± 27.14 pg/mL
same,IL7 concentration,drug 100 nM,2.12 ± 0.14 pg/mL
same,IL8 concentration,drug 100 nM,2980.9 ± 173.36 pg/mL
same,IL9 concentration,drug 100 nM,4.13 ± 0.43 pg/mL
same,IL10 concentration,drug 100 nM,0.88 ± 0.06 pg/mL
same,IL12p70 concentration,drug 100 nM,1.77 ± 0.18 pg/mL
same,IL13 concentration,drug 100 nM,2.55 ± 0.33 pg/mL
